The results in this text go back to patent US10604580B2, “Combination therapies with anti-CD38 antibodies” (Janssen Biotech, Inc., priority 2014, dated 2020).

For assay [1], the system named is MM cell lines RPMI8226, UM9, and XG1. Description: CD38 expression on MM cell lines by flow cytometry (pooled statement). Type of assay: cell-based, human. How it is done:
(§1) Expression of several cell surface proteins was determined by flow cytometric analysis using FITC-, PE-, Per-CP-, or APC-conjugated monoclonal antibodies. Anti-CD38, anti-CD138, and anti-CD56 were purchased from Beckman Coulter; anti-CD3, anti-CD16, anti-CD55, anti-CD59 from BD Biosciences; and anti-CD46 from Biolegend. Flow cytometry was done using a FACS-Calibur device (Becton Dickinson); the data were analyzed using the CellQuest software.
(§2) Interaction of ATRA with nuclear retinoic acid receptors results in altered expression of target genes including induction of CD38 expression (Malavasi F. J Leukoc Biol 90:217-219, 2011; Drach et al., Cancer Res 54:1746-1752, 1994). Therefore, effect of ATRA on MM cell lines RPMI8226, UM9, and XG1 was studied. MM cells were incubated with RPMI-1640 medium alone or with ATRA ranging from 0-25 nM for 48 hours (FIG. 1A) or were incubated with 10 nM ATRA for 24, 48, 72 or 96 hours (FIG. 1B) and then harvested to determine CD38 expression by flow cytometry using a FACS-Calibur device (Becton Dickinson) and anti-CD38 antibody (Beckman Coulter). The data were analyzed using the CellQuest software.
(In flow cytometry, cells or beads pass a laser one at a time.)

Assay [2] deals with XG-1 cells. Description: CD38 expression by flow cytometry, XG-1. The assay is classed as cell-based, human. Particulars: ATRA. On the procedure: as §1, §2
In assay [3] the test system is UM9 cells. In words: CD38 expression by flow cytometry, UM9. Type of assay: cell-based, human. To be noted: ATRA. On the procedure:
as §1, §2

Assay [4] has as its system RPMI8226 cells. Description: CD38 expression by flow cytometry, RPMI8226. Type of assay: cell-based, human. Particulars: ATRA. On the procedure: as §1, §2
Assay [5] relates to primary MM cells (BM-MNCs from 26 MM patients). Description: Ex vivo ATRA exposure of primary MM cells, surface antigen expression by flow cytometry. Type of assay: cell-based, human. To be noted: 10 nM ATRA, 48 hours. How it is done:
as §1
Ex vivo ATRA exposure (10 nM, 48 hours) of primary MM cells from 26 patients was also studied. In these experiments, BM-MNCs from 26 MM patients were incubated with RPMI-1640 medium alone or with 10 nM ATRA for 48 hours, incubated at 4° C. for 20 min with FITC-conjugated CD38 antibody (Beckman Coulter) and then harvested to determine CD38 expression by flow cytometry. Flow cytometric analyses were performed using a FACS-Calibur device (Becton Dickinson); the data were analyzed using the CellQuest software.

Assay [6] relates to MM cell lines XG-1, RPMI8226 and UM9. In words: BLI-based ADCC and CDC assays, ATRA alone. Type of assay: cell-based, human. To be noted: 10 nM ATRA alone.
Assay [7] relates to XG-1 cells. In words: BLI-based CDC assay, XG-1. Type of assay: cell-based, human. Particulars: 10 nM ATRA 48 hours vs solvent control.
The test system of assay [8] is RPMI8226 cells. Description: BLI-based CDC assay, RPMI8226. The assay is classed as cell-based, human. To be noted: 10 nM ATRA 48 hours.
The subject of assay [9] is primary MM cells. Description: Flow cytometry-based ex vivo CDC assay in BM-MNC. To be noted: for CDC, median: 10 μg/mL daratumumab, pooled patients. The assay is classed as cell-based, human. How it is done: (§3) Freshly isolated BM-MNCs, containing 2-57% malignant plasma cells as determined by flow cytometry, were immediately used in ex vivo experiments. […] Pooled human serum (10%) was used as a source of complement. The survival of primary CD138^+ MM cells in the BM-MNCs was determined by flow-cytometry as previously described (van der Veers et al., Haematologica 96:284-290, 2011; van der Veers et al., Blood Cancer J 1:e41, 2011). Surviving MM cells were enumerated by single platform flow-cytometric analysis of CD138^+ cells (with CD138-PE (Beckman Coulter, Miami, Fla., USA)) in the presence of Flow-Count Fluorospheres (Beckman Coulter) to determine absolute numbers of cells.

Assay [10] deals with primary MM cells. Description: Flow cytometry-based ex vivo ADCC assay in BM-MNC. To be noted: for ADCC, median: 10 μg/mL daratumumab, pooled patients. Type of assay: cell-based, human. How it is done:
as §3, with “experiments. […] Sample viability at incubation was more than 98%, as assessed by using ToPro-3 (Invitrogen/Molecular Probes).” for “experiments.”

Assay [11] relates to PBMCs from healthy donors; human MM cell lines L363-CD38, LME-1, RPMI8226 and UM9. In words: Effect of ATRA on effector cells (PBMC-induced ADCC). The assay is classed as cell-based. Particulars: data not shown. On the procedure: (§4) The effect of ATRA on effector cells was evaluated. […] In the experiments, cells were cultured at 37° C. with RPMI-1640 medium with or without 10 nM ATRA 10 nM for 48 h. Cells were then incubated at 4° C. for 20 min with the appropriate conjugated antibodies panel. Flow cytometric analyses were performed using a FACS-Calibur device (Becton Dickinson); the data were analyzed using the CellQuest software.

Assay [12] deals with RPMI8226, L363 and XG-1 cells. In words: Complement-inhibitory protein expression on MM cell lines by flow cytometry. Type of assay: cell-based, human. To be noted: 0-25 nM ATRA, 48 hour. How it is done:
as §1, §4

For assay [13], the system named is primary MM cells derived from 16 patients. Description: Complement-inhibitory protein expression on primary MM cells by flow cytometry. Type of assay: cell-based, human. Particulars: 10 nM ATRA, 48 h. How it is done: as §1, §4
The subject of assay [14] is luciferase-transduced XG1 multiple myeloma cells. Description: Humanized multiple myeloma mouse model, tumor growth by BLI. The assay is classed as in vivo, RAG2−/−γc−/− mice. To be noted: for tumor progression (BLI): single agent plus PBMC-T, daratumumab 8 mg/kg i.p., ATRA 10 mg/kg i.p., weekly BLI for 5 weeks. The source says:
Hybrid scaffolds consisting of three 2-3 mm biphasic calcium phosphate particles were coated in vitro with human mesenchymal stromal cells (MSCs; 2×10^5 cells/scaffold). After a week of in vitro culture in a osteogenic medium, humanized scaffolds were implanted subcutaneously into RAG2^−/−γc^−/− mice, as described previously (Groen et al., Blood. 19; 120:e9-e16, 2012; de Haart et al., Clin. Cancer Res. 19:5591-5601, 2013).
Eight weeks after implantation, mice received a sublethal irradiation dose (3 Gy, 200 kV, 4 mA) and luciferase-transduced XG1 cells were injected directly into the scaffold (1×10^6 cells/scaffold). […] PBMC-T were prepared by Ficoll-Hypaque density-gradient centrifugation of buffy coats, and subsequent depletion of T cells by CD3-beads using the Easy Sep™-technology ([…] Technologies). Tumor growth was monitored by weekly BLI measurements as described previously (Groen et al., Blood. 19; 120:e9-e16, 2012). All animal experiments were conducted after acquiring permission from the local ethical committee for animal experimentation and were in compliance with the Dutch Animal Experimentation Act. The statistical differences between the different treatment groups in the mice experiments were calculated using a Mann-Whitney test. P-values below 0.05 were considered significant.
Luciferase-transduced XG1 multiple myeloma cells developed into aggressive tumors in immunodeficient RAG2^−/−γc^−/− mice in a humanized bone marrow microenvironment generated by subcutaneous implantation of MSC-coated ceramic scaffolds. […] To follow the outgrowth of the tumor, BLI was performed weekly for 5 weeks.

Assay [15] relates to UM9 cells. In words: BLI-based ADCC assay, UM9. Particulars: 10 nM ATRA 48 hours vs solvent control.
Experimental: (§5) For MM cell lines, CDC and ADCC were assessed using bioluminescence imaging (BLI) based ADCC and CDC assays as described above. For primary MM cells, CDC and ADCC were assessed using Flow cytometry-based ex vivo ADCC and CDC assays in BM-MNC as described above. […] Isotype control was added at 10 μg/ml, and 10% heat-inactivated serum was used as control for CDC.
For assay [16], the system named is XG-1 cells. In words: BLI-based ADCC assay, XG-1. Particulars: 10 nM ATRA 48 hours vs solvent control.
Experimental: as §5
Assay [17] deals with RPMI8226 cells. In words: BLI-based ADCC assay, RPMI8226. To be noted: 10 nM ATRA 48 hours.
Experimental: as §5
Setting [18] is: after 10 nM ATRA pretreatment 48 hours.

As for `CC1=C(/C=C/C(C)=C/C=C/C(C)=C/C(=O)O)C(C)(C)CCC1` [ATRA, all-trans retinoic acid], the “increase in CD38 expression” value in assay [1] (10 nM ATRA (minimum sufficient), 48 hours, RPMI8226, UM9, XG1) is recorded as 1.9-4.4 fold. Moreover, the “time of maximum enhancement of CD38 expression” value in [1] (10 nM ATRA for 24, 48, 72 or 96 hours) came to 48 h. In addition, the “CD38 expression at higher doses of ATRA” value in assay [1] (doses above 10 nM up to 25 nM, 48 hours) is “did not further enhance”. In addition, the “enhanced CD38 expression” value was found to be 2.9 fold with XG-1 cells [2] and 4.4 fold in the assay on UM9 cells [3]. Besides, the “upregulation of CD38 expression” value in the assay on RPMI8226 cells [4] is listed as 1.9 fold. Also, in assay [5], the “CD138 expression levels, median increase” value is 2.0 fold. Further, the “expression of CD56” value in assay [5] is listed as “no significant changes”. Further, in assay [5], the “expression of HLA A/B/C” value is “no significant changes”. The “CD38 expression increase, range” value in assay [5] (26 patients) is 1.0-26.5 fold. In addition, the “CD38 expression, median increase” value in assay [5] (26 patients) is recorded as 1.7 fold. In assay [6], the “MM cell lysis by ATRA alone” value is “no MM cell lysis”. For the same molecule, the “effect of ATRA pretreatment on daratumumab-mediated CDC” value in the assay with XG-1 cells [7] was “significantly increased”; in the assay with RPMI8226 cells [8] it was “no significant improvement”. The “patients with significant increase in susceptibility to daratumumab-mediated CDC” value in the assay with primary MM cells [9] (ATRA pretreatment 48 hours) is recorded as 13 out of 16. Also, the “effect of ATRA on daratumumab-mediated CDC in cells not responsive to daratumumab alone” value in the assay with primary MM cells [9] (for example patients 1, 4, 8, 12, 13, 15 and 16) is “induced daratumumab-mediated CDC”. In addition, the “effect of ATRA enhancing daratumumab-mediated CDC in some patient samples” value in the assay with primary MM cells [9] (for example patients 6, 7 and 14) was “no additional effect”. Moreover, the “patients with significant increase in susceptibility to daratumumab-mediated ADCC” value with primary MM cells [10] (ATRA pretreatment 48 hours) was 8 out of 11. Besides, the “effect of ATRA on daratumumab-mediated ADCC” value with primary MM cells [10] (most primary MM cells tested) is “induced daratumumab-mediated ADCC”. Also, the “effect on ability of PBMCs to induce ADCC” value in [11] is “no effect or minimal effect”. For the same molecule, the CD46 expression levels entry was “reduced expression levels” in [12] and “did not significantly affect” in assay [13]. Besides, in [12], the CD55 expression levels result is recorded as “reduced expression levels”. In assay [12], the CD59 expression levels result is given as “reduced expression levels”. In [13] (P=0.0047), the “expression of CD59, mean reduction” value is 37.5%. Also, the “expression of CD55, mean reduction” value in assay [13] (P=0.019) turned out to be 21.3%. Besides, in [14] (daratumumab 8 mg/kg plus ATRA 10 mg/kg plus PBMC-T vs daratumumab plus PBMC-T), the “effect of ATRA on anti-MM effect of daratumumab” value is “significantly enhanced”. Besides, the “tumor progression (BLI)” value in [14] was “no effect”. Also, the results for the “effect of ATRA pretreatment on daratumumab-mediated ADCC” value with UM9 cells [15], with XG-1 cells [16] and with RPMI8226 cells [17] were “significantly increased”, “significantly increased” and “no significant improvement”, respectively.

As for “daratumumab: anti-CD38 antibody, IgG1/κ, VH SEQ ID NO: 4, VL SEQ ID NO: 5, heavy chain SEQ ID NO: 12, light chain SEQ ID NO: 13”, the figures for the “CDC, median” value in the assay with primary MM cells [9] (setting [18]) and with primary MM cells [9] (without ATRA pretreatment) were 43.9% and 16.1%, respectively. Also, the “ADCC, median” value with primary MM cells [10] (setting [18]) is reported as 39.5%; with primary MM cells [10] (without ATRA pretreatment) it was 25.1%. Besides, the “tumor progression (BLI)” value in assay [14] is reported as “markedly slowed tumor progression”.
